{"source": "patent US20250270222A1", "about": "“AP2 ASSOCIATED KINASE 1 INHIBITORS AND USES THEREOF” (Satellos Bioscience Inc., priority 2023, published 2025)", "key": {"[1]": {"biological_target": "GAK (amino acids Q25-N335) (Homo sapiens (Human), UniProt O14976)", "sequence (O14976 25-335)": "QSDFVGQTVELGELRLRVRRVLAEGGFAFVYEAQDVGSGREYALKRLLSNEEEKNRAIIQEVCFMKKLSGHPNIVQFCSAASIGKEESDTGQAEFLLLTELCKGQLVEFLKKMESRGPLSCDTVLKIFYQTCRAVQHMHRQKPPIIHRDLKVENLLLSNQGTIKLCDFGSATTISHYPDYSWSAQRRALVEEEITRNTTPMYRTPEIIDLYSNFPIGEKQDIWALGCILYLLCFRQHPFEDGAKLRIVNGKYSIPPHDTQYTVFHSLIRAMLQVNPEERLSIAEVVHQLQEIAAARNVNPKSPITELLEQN", "assay": "GAK pSENs assay", "type": "biochemical", "experimental": "(§1) The recombinant proteins were independently expressed in Esherichia coli BL21(DE3) cells cultured in Luria-Bertani (LB) medium until OD600 reached 0.6-0.8, then cooled to 15° C., and supplemented with 0.5 mM isopropyl 1-thio-D-galactopyranoside (IPTG) induce protein expression 16 h. Cells were harvested and resuspended in lysis buffer (50 mM HEPES pH 7.5, 500 mM NaCl, 5 mM imidazole, 5% glycerol, 0.5 mM Tris (2-carboxyethyl) phosphine (TCEP), cOmplete Protease Inhibitor Tablet (Roche)) and lysed by microfluidics high pressure homogenizer (UH-06, Union-Biotech). Proteins were purified using Ni-Affinity chromatography (His FF column, Bestchrom) and eluted stepwise in binding buffer with 20-300 mM imidazole. Removal of the hexahistidine tag was performed at 4° C. overnight using recombinant TEV protease and reacted with BirA to obtain the corresponding biotinylated-AAK1. BIKE or GAK proteins. Further separated in the reverse Strep column (Strep-Tactin® XT, IBA). The Biotin elution sample was collected containing untagged biotinylated protein was then purified by Ion-exchange chromatography (Mono Q 10/100 GL, Cytiva) and Size-exclusion chromatography (HiLoad 16/600 Superdex 200 pg, Cytiva). The pure protein was stored in a storage buffer 50 mM HEPES (pH 7.5), 300 mM NaCl, 5% glycerol at −80° C. Protein were characterized by SDS-PAGE. LC-MS and aSEC.\nThis example describes one illustrative method for determining the IC50 of the compounds of the present invention against GAK (amino acids Q25-N335)."}, "[2]": {"biological_target": "AAK1 (amino acids T27-A365) (Homo sapiens (Human), UniProt Q2M2I8)", "sequence (Q2M2I8 27-365)": "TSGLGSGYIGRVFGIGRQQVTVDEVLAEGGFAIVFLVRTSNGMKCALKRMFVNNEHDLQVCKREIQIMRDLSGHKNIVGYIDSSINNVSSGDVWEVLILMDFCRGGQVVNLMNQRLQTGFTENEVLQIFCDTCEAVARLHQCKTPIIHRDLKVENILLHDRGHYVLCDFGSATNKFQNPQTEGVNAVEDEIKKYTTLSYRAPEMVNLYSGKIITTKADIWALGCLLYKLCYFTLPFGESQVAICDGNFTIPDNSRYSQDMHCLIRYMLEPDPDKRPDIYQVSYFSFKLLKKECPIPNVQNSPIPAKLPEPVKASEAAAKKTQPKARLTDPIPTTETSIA", "assay": "AAK1 pSENs assay", "type": "biochemical", "details": "ratio of AAK1 pSENs activity to GAK pSENs activity", "experimental": "as §1\nThis example describes one illustrative method for determining the IC50 of the compounds of the present invention against AAK1 (amino acids T27-A365). AAK1 protein was dissolved at 20 nM in 1× enzyme solution (50 mM HEPES pH7.5, 10 mM MgCl2, 1 mM DTT, 1% glycerol, 0.5 mM EGTA, 0.01% Briji35, 0.02% BSA) and 12.5 ul was incubated with 250 nl DMSO or 250 nl compound in DMSO at 25° C. for 15 min. The reaction was started by addition of 12.5 ul of 30 uM AQT0759 (Assayquant, CSKS-AQT0759B) and 70 uM ATP which were diluted in 1× substrate dilution buffer (50 mM HEPES pH7.5, 10 mM MgCl2, 1 mM DTT, 1% glycerol, 0.5 mM EGTA, 0.01% Briji35)."}}, "note": "pIC50: −log10 of the molar value.", "data": [{"compound": "O=C1C[C@H](OC(=O)N2CCN(c3ccn4ncc(-c5cccnc5OC5CC5)c4n3)CC2)CN1CCO", "note": "[Compound I-38, [(3S)-1-(2-Hydroxyethyl)-5-oxo-pyrrolidin-3-yl]-4-[3-[2-(cyclopropoxy)-3-pyridyl]pyrazolo[1,5-a]pyrimidin-5-yl]piperazine-1-carboxylate]", "values": [{"measurement": "pIC50", "setting": "[1]", "value": "< 5.82"}, {"measurement": "AAK1:GAK pSENs Selectivity", "setting": "[2]", "value": "A (A: ≤0.015)"}]}, {"compound": "C[C@@H]1CN(c2ccn3ncc(-c4cccnc4OC4CC4)c3n2)CCN1C(=O)O[C@@H]1CNC(=O)C1", "note": "[Compound I-39, [(3S)-5-oxopyrrolidin-3-yl]-(2R)-4-[3-[2-(cyclopropoxy)-3-pyridyl]pyrazolo[1,5-a]pyrimidin-5-yl]-2-methyl-piperazine-1-carboxylate]", "values": [{"measurement": "pIC50", "setting": "[1]", "value": "< 5.82"}, {"measurement": "AAK1:GAK pSENs Selectivity", "setting": "[2]", "value": "A (A: ≤0.015)"}]}, {"compound": "CC(C)(C)OC(=O)N1CC(Oc2ncccc2-c2cnn3ccc(N4CCN(C(=O)O[C@@H]5CNC(=O)C5)CC4)nc23)C1", "note": "[Compound I-42, [(3S)-5-Oxopyrrolidin-3-yl]4-[3-[2-(1-tert-butoxycarbonylazetidin-3-yl)oxy-3-pyridyl]pyrazolo[1,5-a]pyrimidin-5-yl]piperazine-1-carboxylate]", "values": [{"measurement": "pIC50", "setting": "[1]", "value": "< 5.82"}, {"measurement": "AAK1:GAK pSENs Selectivity", "setting": "[2]", "value": "A (A: ≤0.015)"}]}, {"compound": "CN1CC[C@@](C)(OC(=O)N2CCN(c3ccn4ncc(-c5cccnc5OC5CC5)c4n3)CC2)C1", "note": "[Compound I-50, [(3R)-1,3-dimethylpyrrolidin-3-yl]-4-[3-[2-(cyclopropoxy)-3-pyridyl]pyrazolo[1,5-a]pyrimidin-5-yl]piperazine-1-carboxylate]", "values": [{"measurement": "pIC50", "setting": "[1]", "value": "< 5.82"}, {"measurement": "AAK1:GAK pSENs Selectivity", "setting": "[2]", "value": "A (A: ≤0.015)"}]}, {"compound": "C[C@@]1(OC(=O)N2CCN(c3ccn4ncc(-c5cccnc5OC5CC5)c4n3)CC2)CCN(CCO)C1", "note": "[Compound I-52, [(3R)-1-(2-hydroxyethyl)-3-methyl-pyrrolidin-3-yl]-4-[3-[2-(cyclopropoxy)-3-pyridyl]pyrazolo[1,5-a]pyrimidin-5-yl]piperazine-1-carboxylate]", "values": [{"measurement": "pIC50", "setting": "[1]", "value": "< 5.82"}, {"measurement": "AAK1:GAK pSENs Selectivity", "setting": "[2]", "value": "A (A: ≤0.015)"}]}, {"compound": "COC(=O)N1CC(Oc2ncccc2-c2cnn3ccc(N4CCN(C(=O)O[C@@H]5CNC(=O)C5)CC4)nc23)C1", "note": "[Compound I-58, [(3S)-5-oxopyrrolidin-3-yl]-4-[3-[2-(1-methoxycarbonylazetidin-3-yl)oxy-3-pyridyl]pyrazolo[1,5-a]pyrimidin-5-yl]piperazine-1-carboxylate]", "values": [{"measurement": "pIC50", "setting": "[1]", "value": "< 5.82"}, {"measurement": "AAK1:GAK pSENs Selectivity", "setting": "[2]", "value": "A (A: ≤0.015)"}]}, {"compound": "CC(=O)N1CC(Oc2ncccc2-c2cnn3ccc(N4CCN(C(=O)O[C@@H]5CNC(=O)C5)CC4)nc23)C1", "note": "[Compound I-59, (S)-5-oxopyrrolidin-3-yl 4-(3-(2-((1-acetylazetidin-3-yl)oxy)pyridin-3-yl)pyrazolo[1,5-a]pyrimidin-5-yl)piperazine-1-carboxylate]", "values": [{"measurement": "pIC50", "setting": "[1]", "value": "< 5.82"}, {"measurement": "AAK1:GAK pSENs Selectivity", "setting": "[2]", "value": "A (A: ≤0.015)"}]}, {"compound": "CN(CCNc1ccn2ncc(-c3cccnc3OC3CC3)c2n1)C(=O)O[C@@H]1CNC(=O)C1", "note": "[Compound I-60]", "values": [{"measurement": "pIC50", "setting": "[1]", "value": "< 5.82"}, {"measurement": "AAK1:GAK pSENs Selectivity", "setting": "[2]", "value": "C (C: 0.076-0.15)"}]}, {"compound": "CN(CCNc1ccn2ncc(-c3cccnc3OC3CN(C(=O)OC(C)(C)C)C3)c2n1)C(=O)OC(C)(C)C", "note": "[Compound I-62, Tert-butyl 3-[[3-[5-[2-[tert-butoxycarbonyl(methyl)amino]ethylamino]pyrazolo[1,5-a]pyrimidin-3-yl]-2-pyridyl]oxy]azetidine-1-carboxylate]", "values": [{"measurement": "pIC50", "setting": "[1]", "value": "< 5.82"}, {"measurement": "AAK1:GAK pSENs Selectivity", "setting": "[2]", "value": "A (A: ≤0.015)"}]}, {"compound": "CC(=O)N1CC(Oc2ncccc2-c2cnn3ccc(NCCN(C)C(=O)OC(C)(C)C)nc23)C1", "note": "[Compound I-63, Tert-butyl (2-((3-(2-((1-acetylazetidin-3-yl)oxy)pyridin-3-yl)pyrazolo[1,5-a]pyrimidin-5-yl)amino)ethyl)(methyl)carbamate]", "values": [{"measurement": "pIC50", "setting": "[1]", "value": "< 5.82"}, {"measurement": "AAK1:GAK pSENs Selectivity", "setting": "[2]", "value": "A (A: ≤0.015)"}]}, {"compound": "COC(=O)N1CC(Oc2ncccc2-c2cnn3ccc(NCCN(C)C(=O)OC(C)(C)C)nc23)C1", "note": "[Compound I-64]", "values": [{"measurement": "pIC50", "setting": "[1]", "value": "< 5.82"}, {"measurement": "AAK1:GAK pSENs Selectivity", "setting": "[2]", "value": "A (A: ≤0.015)"}]}, {"compound": "COc1ncccc1-c1cnn2ccc(N3CCN(C(=O)O[C@H]4CO[C@H]5OCC[C@H]54)CC3)nc12", "note": "[Compound I-65, (3R,3aS,6aR)-hexahydrofuro[2,3-b]furan-3-yl 4-(3-(2-methoxypyridin-3-yl)pyrazolo[1,5-a]pyrimidin-5-yl)piperazine-1-carboxylate]", "values": [{"measurement": "pIC50", "setting": "[1]", "value": "< 5.82"}, {"measurement": "AAK1:GAK pSENs Selectivity", "setting": "[2]", "value": "A (A: ≤0.015)"}]}, {"compound": "COc1ccccc1-c1cnn2ccc(N3CCN(C(=O)O[C@H]4CO[C@H]5OCC[C@H]54)CC3)nc12", "note": "[Compound I-69, (3R,3aS,6aR)-hexahydrofuro[2,3-b]furan-3-yl 4-(3-(2-methoxyphenyl)pyrazolo[1,5-a]pyrimidin-5-yl)piperazine-1-carboxylate]", "values": [{"measurement": "pIC50", "setting": "[1]", "value": "< 5.82"}, {"measurement": "AAK1:GAK pSENs Selectivity", "setting": "[2]", "value": "A (A: ≤0.015)"}]}, {"compound": "[2H]C1([2H])N(C(=O)O[C@@H]2CNC(=O)C2)C([2H])([2H])C([2H])([2H])N(c2ccn3ncc(-c4cccnc4OC4CC4)c3n2)C1([2H])[2H]", "note": "[Compound I-72, [(3S)-5-oxopyrrolidin-3-yl]4-[3-[2-(cyclopropoxy)-3-pyridyl]pyrazolo[1,5-a]pyrimidin-5-yl]-2,2,3,3,5,5,6,6-octadeuterio-piperazine-1-carboxylate]", "values": [{"measurement": "pIC50", "setting": "[1]", "value": "< 5.82"}, {"measurement": "AAK1:GAK pSENs Selectivity", "setting": "[2]", "value": "A (A: ≤0.015)"}]}, {"compound": "COC(=O)N1CC(Oc2ncccc2-c2cnn3ccc(N4CCN(C(=O)O[C@@H]5CC(=O)N(C)C5)CC4)nc23)C1", "note": "[Compound I-83, [(3R)-1-methyl-5-oxo-pyrrolidin-3-yl]4-[3-[2-(1-methoxycarbonylazetidin-3-yl)oxy-3-pyridyl]pyrazolo[1,5-a]pyrimidin-5-yl]piperazine-1-carboxylate]", "values": [{"measurement": "pIC50", "setting": "[1]", "value": "< 5.82"}, {"measurement": "AAK1:GAK pSENs Selectivity", "setting": "[2]", "value": "A (A: ≤0.015)"}]}, {"compound": "COC(=O)N1CC(Oc2ncccc2-c2cnn3ccc(N4CCN(C(=O)O[C@@H]5CC(=O)N(CCO)C5)CC4)nc23)C1", "note": "[Compound I-84, [(3R)-1-(2-hydroxyethyl)-5-oxo-pyrrolidin-3-yl]4-[3-[2-(1-methoxycarbonylazetidin-3-yl)oxy-3-pyridyl]pyrazolo[1,5-a]pyrimidin-5-yl]piperazine-1-carboxylate]", "values": [{"measurement": "pIC50", "setting": "[1]", "value": "< 5.82"}, {"measurement": "AAK1:GAK pSENs Selectivity", "setting": "[2]", "value": "B (B: 0.016-0.075)"}]}, {"compound": "CN1C[C@@H](OC(=O)N2CCN(c3ccn4ncc(-c5cc(F)cnc5OC5CC5)c4n3)CC2)CC1=O", "note": "[Compound I-86]", "values": [{"measurement": "pIC50", "setting": "[1]", "value": "< 5.82"}, {"measurement": "AAK1:GAK pSENs Selectivity", "setting": "[2]", "value": "A (A: ≤0.015)"}]}, {"compound": "COCCN1C[C@@H](OC(=O)N2CCN(c3ccn4ncc(-c5cc(F)cnc5OC5CC5)c4n3)CC2)CC1=O", "note": "[Compound I-89]", "values": [{"measurement": "pIC50", "setting": "[1]", "value": "< 5.82"}, {"measurement": "AAK1:GAK pSENs Selectivity", "setting": "[2]", "value": "A (A: ≤0.015)"}]}, {"compound": "CN1C[C@@H](OC(=O)N2CCN(c3nc4c(-c5cccnc5OC5CC5)cnn4cc3F)CC2)CC1=O", "note": "[Compound I-109, [(3S)-1-methyl-5-oxo-pyrrolidin-3-yl]4-[3-[2-(cyclopropoxy)-3-pyridyl]-6-fluoro-pyrazolo[1,5-a]pyrimidin-5-yl]piperazine-1-carboxylate]", "values": [{"measurement": "pIC50", "setting": "[1]", "value": "< 5.82"}, {"measurement": "AAK1:GAK pSENs Selectivity", "setting": "[2]", "value": "A (A: ≤0.015)"}]}, {"compound": "[2H]C([2H])([2H])N1C[C@@H](OC(=O)N2CCN(c3ccn4ncc(-c5cccnc5OC5CC5)c4n3)CC2)CC1=O", "note": "[Compound I-113, [(3S)-5-oxo-1-(trideuteriomethyl)pyrrolidin-3-yl]4-[3-[2-(cyclopropoxy)-3-pyridyl]pyrazolo[1,5-a]pyrimidin-5-yl]piperazine-1-carboxylate]", "values": [{"measurement": "pIC50", "setting": "[1]", "value": "< 5.82"}, {"measurement": "AAK1:GAK pSENs Selectivity", "setting": "[2]", "value": "A (A: ≤0.015)"}]}, {"compound": "CC(C)N1C[C@@H](OC(=O)N2CCN(c3ccn4ncc(-c5cccnc5OC5CC5)c4n3)CC2)CC1=O", "note": "[Compound I-114, [(3S)-1-isopropyl-5-oxo-pyrrolidin-3-yl]-4-[3-[2-(cyclopropoxy)-3-pyridyl]pyrazolo[1,5-a]pyrimidin-5-yl]piperazine-1-carboxylate]", "values": [{"measurement": "pIC50", "setting": "[1]", "value": "< 5.82"}, {"measurement": "AAK1:GAK pSENs Selectivity", "setting": "[2]", "value": "B (B: 0.016-0.075)"}]}, {"compound": "COCCN1C[C@@H](OC(=O)N2CCN(c3ccn4ncc(-c5cccnc5OC5CC5)c4n3)CC2)CC1=O", "note": "[Compound I-115, [(3S)-1-(2-methoxyethyl)-5-oxo-pyrrolidin-3-yl]-4-[3-[2-(cyclopropoxy)-3pyridyl]pyrazolo[1,5-a]pyrimidin-5-yl]piperazine-1-carboxylate]", "values": [{"measurement": "pIC50", "setting": "[1]", "value": "< 5.82"}, {"measurement": "AAK1:GAK pSENs Selectivity", "setting": "[2]", "value": "A (A: ≤0.015)"}]}]}
